Experimental data: patent publication EP0326331B1, “Substituted quinolines and cinnolines” (Dow AgroSciences LLC, priority 1988, dated 1989)

Key:
Format in all cases: in vivo
[1] = test system: Twospotted spider mites (Tetranychus urticae Koch); assay: Mite/insect screen, SM; conditions: for mortality at 200 ppm / mortality at 400 ppm: Tetranychus urticae, foliar, read-out: SM RESULTS %; for mortality at 200 ppm / mortality at 400 ppm / SM RESULTS %: percent mortality, foliar spray on squash; for activity as miticides: summary statement in the description
Procedure, shortened: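 Read-out: percent mortality after standard exposure periods. Test solutions were water dilutions of compound dissolved in acetone/alcohol (50:50) with emulsifier blends; leaves were sprayed to runoff on both surfaces and air-dried for one hour before exposure.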

[2] = test system: Botrytis cinerea (gray mold); assay: Test 1 greenhouse foliar spray screen, gray mold on grape berries; conditions: Test 1, spray on grape berries, disease control rating at 400 ppm / 100 ppm; for pest or weed control at 400 ppm: Botrytis cinerea, foliar
[3] = test system: Erysiphe graminis tritici (powdery mildew); assay: Test 1 greenhouse foliar spray screen, powdery mildew on wheat; conditions: Test 1, foliar spray on wheat, disease control rating at 400 ppm / 100 ppm; for pest or weed control at 400 ppm: Blumeria graminis, foliar, read-out: POWD MDEW
[4] = test system: southern armyworm (Spodopetra eridania Cramer); assay: Mite/insect screen, SAW; conditions: percent mortality, foliar spray on squash; for mortality at 200 ppm / mortality at 400 ppm: Spodoptera eridania, foliar, read-out: SAW RESULTS %
Procedure, shortened: (§1)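 Percent mortality was scored after standard exposure periods, following spraying of leaves to runoff (both surfaces, 10 psi, 1 h drying) with water dilutions of compound in emulsifier-containing acetone/alcohol (50:50). Armyworms received excised treated leaves in dishes.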

[5] = test system: melon aphids (Aphis gossypii Glover); assay: Mite/insect screen, MA; conditions: percent mortality, foliar spray on squash; for mortality at 200 ppm / mortality at 400 ppm: Aphis gossypii, foliar, read-out: MA RESULTS %
Procedure, shortened: as §1

[6] = test system: Pyricularia oryzae (rice blast); assay: whole plant or invertebrate; conditions: disease control rating at 400 ppm / 100 ppm; for pest or weed control at 400 ppm: Pyricularia oryzae, foliar, read-out: RICE BLAST, Test 1, foliar spray on rice
[7] = test system: Pseudoperonospora cubensis (downy mildew); assay: Test 1 greenhouse foliar spray screen, downy mildew on squash; conditions: Test 1, foliar spray on squash, disease control rating at 400 ppm / 100 ppm; for pest or weed control at 400 ppm: Pseudoperonospora cubensis, foliar, read-out: DOWN MDEW
[8] = test system: Puccinia recondita tritici (leaf rust); assay: Test 1 greenhouse foliar spray screen, leaf rust on wheat; conditions: Test 1, foliar spray on wheat, disease control rating at 400 ppm / 100 ppm; for pest or weed control at 400 ppm: Puccinia recondita, foliar
corn rootworm = assay: Mite/insect screen, CRW; conditions: percent mortality; for mortality at 12 ppm / mortality at 24 ppm: read-out: CRW RESULTS %
Procedure, shortened: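 Corn rootworm mortality (%) was evaluated following standard exposure times. Test material was emulsified by dissolution in acetone/alcohol (1:1) containing sulfonate/nonionic emulsifier blends TOXIMUL R (23 g/L) and TOXIMUL S (13 g/L), and water-diluted to the indicated doses.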

| Compound | mortality at 200 ppm ([1]; rate 200 ppm) [%] | mortality at 400 ppm ([1]; rate 400 ppm) [%] | pest or weed control at 400 ppm [2] [%] | pest or weed control at 400 ppm [3] [%] | mortality at 200 ppm ([4]; rate 200 ppm) [%] | mortality at 400 ppm ([4]; rate 400 ppm) [%] | mortality at 200 ppm ([5]; rate 200 ppm) [%] | mortality at 400 ppm ([5]; rate 400 ppm) [%] | pest or weed control at 400 ppm [6] [%] | pest or weed control at 400 ppm [7] [%] | pest or weed control at 400 ppm [8] [%] | mortality at 12 ppm (corn rootworm; CRW rate 12.00 ppm) [%] | mortality at 24 ppm (corn rootworm; CRW rate 24.00 ppm) [%] | also measured |
| --- | --- | --- | --- | --- | --- | --- | --- | --- | --- | --- | --- | --- | --- | --- |
| CC(C)(C)c1ccc(CCOc2ccnc3cc(F)ccc23)cc1 [Example 232, 4-[2-(4-(t-butyl)phenyl)ethoxy]-7-fluoroquinoline] | 100 | 80 | 0 to 19 | 0 to 19 | 0 | 30 | 70 | 40 | 0 to 19 | 0 to 19 | 0 to 19 | 0 | 0 | activity as miticides [1]: particularly excellent activity |
| Fc1cccc2c(OCCc3ccccc3-c3ccccc3)ccnc12 [Example 237, 8-fluoro-4-[2-(1,1'-biphenyl)-2-yl-ethoxy]quinoline] | 0 | 100 | 0 to 19 | 90 to 100 | 0 | 0 | 0 | 0 | 90 to 100 | 0 to 19 | 20 to 89 | 0 | 0 | activity as miticides [1]: particularly excellent activity |
| FC(F)(F)c1ccc2c(OCCc3ccccc3)ccnc2c1 [Example 239, 4-(2-phenylethoxy)-7-(trifluoromethyl)quinoline] | 0 | 0 | 0 to 19 | 90 to 100 | 0 | 0 | 0 | 0 | 90 to 100 | 90 to 100 | 90 to 100 | 0 | 0 |  |
| Fc1ccc(CCOc2ccnc3c(Cl)cccc23)cc1 [Example 240, 8-chloro-4-[2-(4-fluorophenyl)ethoxy]quinoline] |  | 0 | 0 to 19 | 0 to 19 |  | 0 |  | 0 | 20 to 89 | 0 to 19 | 90 to 100 |  | 0 |  |
| CC(C)(C)c1ccc(CCCOc2ccnc3c(F)cccc23)cc1 [Example 241, 8-fluoro-4-[3-[4-(t-butyl)phenyl]propoxy]quinoline] |  | 0 | 0 to 19 | 0 to 19 |  | 0 |  | 0 | 0 to 19 | 0 to 19 | 0 to 19 |  | 0 |  |
| Clc1ccc(CCCOc2ccnc3c(Cl)cccc23)cc1 [Example 242, 8-chloro-4-[3-(4-chlorophenyl)propoxy]quinoline] | 0 | 0 | 0 to 19 | 0 to 19 | 0 | 0 | 0 | 0 | 0 to 19 | 0 to 19 | 0 to 19 | 0 | 0 |  |
| Fc1cccc2c(OCC=Cc3ccccc3)ccnc12 [Example 243, 8-fluoro-4-[(3-phenyl-2-propenyl)oxy]quinoline] |  | 0 | 0 to 19 | 0 to 19 |  | 0 |  | 0 | 0 to 19 | 0 to 19 | 0 to 19 |  | 0 |  |
| Cc1cc(OCCC2CCCCC2)c2c(Cl)ccc(C)c2n1 [Example 248, 5-chloro-4-(2-cyclohexylethoxy)-2,8-dimethylquinoline] |  | 0 | 0 to 19 | 20 to 89 |  | 0 |  | 0 | 0 to 19 | 0 to 19 | 0 to 19 |  | 0 |  |
| Cc1cc(OCCC2CCCCC2)c2cc(F)ccc2n1 [Example 249, 6-fluoro-4-(2-cyclohexylethoxy)-2-methylquinoline] |  | 0 | 0 to 19 | 0 to 19 |  | 0 |  | 0 | 0 to 19 | 0 to 19 | 0 to 19 |  | 0 |  |
| Cc1ccc(CCOc2cc(OCCc3ccc(C)cc3)c3cccc(F)c3n2)cc1 [Example 250, 8-fluoro-2,4-bis[2-(4-methylphenyl)ethoxy]quinoline] |  | 0 | 0 to 19 | 0 to 19 |  | 0 |  | 0 | 0 to 19 | 20 to 89 | 20 to 89 |  | 0 |  |
| FC(F)(F)c1ccc2c(CCCc3ccccc3)ccnc2c1 [Example 254, 4-(3-phenylpropyl)-7-(trifluoromethyl)quinoline] |  | 0 | 0 to 19 | 90 to 100 |  | 0 |  | 0 | 90 to 100 | 0 to 19 | 0 to 19 |  | 0 |  |
| Clc1cccc2c(CCCc3ccccc3)ccnc12 [Example 255, 8-chloro-4-(3-phenylpropyl)quinoline] |  | 0 | 0 to 19 | 20 to 89 |  | 0 |  | 0 | 90 to 100 | 20 to 89 | 90 to 100 |  | 0 |  |
| Fc1cccc2c(CCCc3ccc(-c4ccccc4)cc3)ccnc12 [Example 257, 4-[3-(1,1'-biphenyl)-4-ylpropyl]-8-fluoroquinoline] |  | 0 | 0 to 19 | 90 to 100 |  | 0 |  | 0 | 20 to 89 | 90 to 100 | 90 to 100 |  | 0 |  |
| CC(C)(C)c1ccc(CCOc2ccnc3ccccc23)cc1 [Example 262, 4-[2-[4-(t-butyl)phenyl]ethoxy]quinoline] | 100 | 100 | 0 to 19 | 0 to 19 | 0 | 0 | 100 | 100 | 90 to 100 | 90 to 100 | 90 to 100 | 0 | 0 |  |
| Fc1cccc2c(OCCc3ccc(-c4ccccc4)cc3)ccnc12 [Example 263, 8-fluoro-4-[2-(1,1'-biphenyl)-4-yl-ethoxy]quinoline] |  |  |  |  |  |  |  |  |  |  |  |  |  | SM RESULTS % ([1]; rate 200 ppm): 0%; SM RESULTS % ([1]; rate 400 ppm): 0%; GRAY MOLD [2]: - (0-19% control at 400 ppm); POWD MDEW [3]: + (20-89% control at 400 ppm); SAW RESULTS % ([4]; rate 200 ppm): 0%; SAW RESULTS % ([4]; rate 400 ppm): 0%; MA RESULTS % ([5]; rate 200 ppm): 0%; MA RESULTS % ([5]; rate 400 ppm): 0%; RICE BLAST ([6]; Test 1, foliar spray on rice): + (20-89% control at 400 ppm); DOWN MDEW [7]: - (0-19% control at 400 ppm); LEAF RUST [8]: + (20-89% control at 400 ppm); CRW RESULTS % (corn rootworm; CRW rate 12.00 ppm): 0%; CRW RESULTS % (corn rootworm; CRW rate 24.00 ppm): 0% |
